This note sets out measurements from US9796719B2, “Compounds and pharmaceutical compositions thereof for the treatment of inflammatory disorders” (GALAPAGOS NV, priority 2013, dated 2017).

The assay deals with hENPP2 (UniProtKB/SwissProt Sequence ref Q13822) (Homo sapiens (Human), UniProt Q13822). The experiment in a line: LPC hENPP2 assay (choline release, LPC as substrate). Type of assay: biochemical. How it is done:
The principle of the assay consists in quantifying the released choline with an enzymatic method using choline oxidase and peroxidase. Choline oxydation by choline oxydase releases betaine and peroxide. The latter is quantified in presence of HRP that converts the peroxide detection agent TOOS and 4-aminoantipyrine into quinoneimine dye. The appearance of quinoneimine dye is measured spectrophotometrically at 555 nm and is proportional to the amount of choline released by ENPP2. Inhibition of ENPP2 will result in a decrease of the signal.
The reaction is terminated and choline quantified by the addition of a 25 μL of a mixture containing 0.6 U/mL of choline oxidase, 0.6 U/mL of peroxydase, 1.8 mM TOOS, 1.2 mM amino-antipyrine, 20 mM EGTA (stop-developer solution) diluted in the buffer described above. […] is read on the Envision after an incubation of 30 min at room temperature (Excitation 555 nm, excitation light=70%).

Some results are limits rather than exact numbers.

In turn, `CCc1nc2ccc(C3=CCN(S(C)(=O)=O)CC3)nn2c1N(C)c1nc(-c2ccc(F)cc2C#N)cs1` [Cpd 204, 2-(2-((2-ethyl-6-(1-(methylsulfonyl)-1,2,3,6-tetrahydropyridin-4-yl)imidazo[1,2-b]pyridazin-3-yl)(methyl)amino)thiazol-4-yl)-5-fluorobenzonitrile] displayed an IC50 of 100 to 500 nM.
With `CCc1nc2ccc(N3CCC4(CC(=O)NC4=O)C3)nn2c1N(C)c1nc(-c2ccc(F)cc2)cs1` (stereo not drawn) [Cpd 121, 7-(2-ethyl-3-((4-(4-fluorophenyl)thiazol-2-yl)(methyl)amino)imidazo[1,2-b]pyridazin-6-yl)-2,7-diazaspiro[4.4] nonane-1,3-dione] the figure was above 1000 nM; with `CCNC(=O)COC1CCCN(c2ccc3nc(CC)c(N(C)c4nc(-c5ccc(F)cc5)cs4)n3n2)C1` (stereo not drawn) [Cpd 92, N-ethyl-2-(1-(2-ethyl-3-((4-(4-fluorophenyl)thiazol-2-yl)(methyl)amino)imidazo[1,2-b]pyridazin-6-yl)piperidin-3-yloxy)acetamide], above 1000 nM; with `CCc1nc2ccc(C3CCN(CC(=O)N(C)C)CC3)nn2c1N(C)c1nc(-c2ccc(F)cc2)c(CO)s1` [Cpd 203, 2-(4-(2-ethyl-3-((4-(4-fluorophenyl)-5-(hydroxymethyl)thiazol-2-yl)(methyl)amino)imidazo[1,2-b]pyridazin-6-yl)piperidin-1-yl)-N,N-dimethylacetamide], 500 to 1000 nM.
As to `CCc1nc2ccc(N3CCN(CC(=O)N4CCC(F)(F)C4)CC3)nn2c1N(C)c1nc(-c2ccc(F)cc2)cs1` [Cpd 31, 1-(3,3-difluoropyrrolidin-l-yl)-2-(4-(2-ethyl-3-((4-(4-fluorophenyl)thiazol-2-yl)(methyl)amino)imidazo[1,2-b]pyridazin-6-yl)piperazin-l-yl)ethanone], the IC50 was in the range of 100 to 500 nM.
Compound `CCc1nc2ccc(N3CCC(O)(CNC(=O)C(C)C)C3)nn2c1N(C)c1nc(-c2ccc(F)cc2)c(C#N)s1` (stereo not drawn) [Cpd 170, N-((1-(3-((5-cyano-4-(4-fluorophenyl)thiazol-2-yl)(methyl)amino)-2-ethylimidazo[1,2-b]pyridazin-6-yl)-3-hydroxypyrrolidin-3-yl)methyl) isobutyramide] returned an IC50 of 100 to 500 nM.
`CCc1nc2ccc(N3CCN(CC(=O)NC)CC3)nn2c1N(C)c1nc(-c2ccc(F)cc2)cs1` [Cpd 30]: the concentration for half-maximal inhibition (IC50) was in the range of 500 to 1000 nM.
Compound `CCc1nc2ccc(N3CCC(C(=O)OC)C3)nn2c1N(C)c1nc(-c2ccc(F)cc2)cs1` (stereo not drawn) [Cpd 139, 1-(2-Ethyl-3-{[4-(4-fluoro-phenyl)-thiazol-2-yl]-methyl-amino}-imidazo[1,2-b]pyridazin-6-yl)-pyrrolidine-3-carboxylic acid methyl ester] came in with an IC50 above 1000 nM.
The result for `CCc1nc2ccc(N3CCC(N4C[C@@H](C)O[C@@H](C)C4)C3)nn2c1N(C)c1nc(-c2ccc(F)cc2)c(C#N)s1` (stereo partly drawn) [Compound 178, 2-((6-(3-((2S,6R)-2,6-dimethylmorpholino)pyrrolidin-1-yl)-2-ethylimidazo[1,2-b]pyridazin-3-yl)(methyl)amino)-4-(4-fluorophenyl)thiazole-5-carbonitrile] reads 500 to 1000 nM; that for `CCc1nc2ccc(N3CC[C@@H](NCC(=O)N4CC(O)C4)C3)nn2c1N(C)c1nc(-c2ccc(F)cc2)c(C#N)s1` [Cpd 176, (R)-2-((2-ethyl-6-(3-(2-(3-hydroxyazetidin-1-yl)-2-oxoethylamino)pyrrolidin-1-yl)imidazo[1,2-b]pyridazin-3-yl)(methyl)amino)-4-(4-fluorophenyl) thiazole-5-carbonitrile], 0.01 to 100 nM; that for `CCc1nc2ccc(N3CCC(N4CCNC(=O)C4)C3)nn2c1N(C)c1nc(-c2ccc(F)cc2)cs1` (stereo not drawn) [Cpd 146, 4-(1-(2-ethyl-3-((4-(4-fluorophenyl)thiazol-2-yl)(methyl)amino)imidazo[1,2-b]pyridazin-6-yl)pyrrolidin-3-yl)piperazin-2-one], 500 to 1000 nM.
Turning to `CCc1nc2ccc(N3CCN(CC4CNC(=O)O4)CC3)nn2c1N(C)c1nc(-c2ccc(F)cc2)c(CO)s1` (stereo not drawn) [Cpd 41, 5-((4-(2-ethyl-3-((4-(4-fluorophenyl)-5-(hydroxymethyl)thiazol-2-yl)(methyl)amino)imidazo[1,2-b]pyridazin-6-yl)piperazin-1-yl)methyl) oxazolidin-2-one], the IC50 fell in the range of 500 to 1000 nM.
Turning to `CCc1nc2ccc(N3CCC4(CCNC4)C3)nn2c1N(C)c1nc(-c2ccc(F)cc2)c(C#N)s1` (stereo not drawn) [Cpd 166, 2-((2-ethyl-6-(2,7-diazaspiro[4.4]nonan-2-yl)imidazo[1,2-b]pyridazin-3-yl)(methyl)amino)-4-(4-fluorophenyl) thiazole-5-carbonitrile], the IC50 lay in the range of 100 to 500 nM.
The compound `CCc1nc2ccc(C3CCN(CC(=O)N4CC(O)C4)CC3)nn2c1N(C)c1nc(-c2ccc(F)cc2C#N)cs1` [Cpd 207, 2-(2-((2-ethyl-6-(1-(2-(3-hydroxyazetidin-1-yl)-2-oxoethyl)piperidin-4-yl)imidazo[1,2-b]pyridazin-3-yl)(methyl)amino)thiazol-4-yl)-5-fluorobenzonitrile] gave a half-inhibitory concentration (IC50) of 100 to 500 nM.
`CCc1nc2ccc(N3CCC(NCC(=O)OC)C3)nn2c1N(C)c1nc(-c2ccc(F)cc2)cs1` (stereo not drawn) [Cpd 135, methyl 2-(1-(2-ethyl-3-((4-(4-fluorophenyl)thiazol-2-yl)(methyl)amino)imidazo[1,2-b]pyridazin-6-yl)pyrrolidin-3-ylamino)acetate] yielded an IC50 of 500 to 1000 nM.
Turning to `CCc1nc2ccc(N3CCC(=O)C3)nn2c1N(C)c1nc(-c2ccc(F)cc2)c(Cl)s1` [Compound 132, 1-(3-((5-chloro-4-(4-fluorophenyl)thiazol-2-yl)(methyl)amino)-2-ethylimidazo[1,2-b]pyridazin-6-yl)pyrrolidin-3-one], the IC50 was above 1000 nM.
For `CCOC(=O)NCCN1CCN(c2ccc3nc(CC)c(N(C)c4nc(-c5ccc(F)cc5)cs4)n3n2)CC1` [Cpd 58, ethyl 2-(4-(2-ethyl-3-((4-(4-fluorophenyl)thiazol-2-yl)(methyl)amino)imidazo[1,2-b]pyridazin-6-yl)piperazin-1-yl)ethylcarbamate], the IC50 is above 1000 nM.
With `CCc1nc2ccc(N3CCN(S(C)(=O)=O)[C@H](COC)C3)nn2c1N(C)c1nc(-c2ccc(F)cc2)cs1` [Compound 62, (S)—N-(2-ethyl-6-(3-(methoxymethyl)-4-(methylsulfonyl)piperazin-1-yl)imidazo[1,2-b]pyridazin-3-yl)-4-(4-fluorophenyl)-N-methylthiazol-2-amine] the figure was above 1000 nM; with `CCc1nc2ccc(N3CCC4(CCOCC4)C3)nn2c1N(C)c1nc(-c2ccc(F)cc2)c(CO)s1` [Cpd 186, (2-((2-ethyl-6-(8-oxa-2-azaspiro[4.5]decan-2-yl)[1,2-b]pyridazin-3-yl)(methyl)amino)-4-(4-fluorophenyl)thiazol-5-yl)methanol], 100 to 500 nM.
With `CCc1nc2ccc(N3CCC(NC(=O)CO)CC3)nn2c1N(C)c1nc(-c2ccc(F)cc2)cs1` [Cpd 85, N-(1-(2-ethyl-3-((4-(4-fluorophenyl)thiazol-2-yl)(methyl)amino)imidazo[1,2-b]pyridazin-6-yl)piperidin-4-yl)-2-hydroxyacetamide] the figure was above 1000 nM; with `CCc1nc2ccc(N3CCN(C4CCOCC4)CC3)nn2c1N(C)c1nc(-c2ccc(F)cc2)cs1` [Cpd 39, N-(2-ethyl-6-(4-(tetrahydro-2H-pyran-4-yl)piperazin-1-yl)imidazo[1,2-b]pyridazin-3-yl)-4-(4-fluorophenyl)-N-methylthiazol-2-amine], above 1000 nM.
The result for `CCc1nc2ccc(N3CC[C@H](C#N)C3)nn2c1N(C)c1nc(-c2ccc(F)cc2)cs1` [Cpd 128, (S)-1-(2-ethyl-3-((4-(4-fluorophenyl)thiazol-2-yl)(methyl)amino)imidazo[1,2-b]pyridazin-6-yl)pyrrolidine-3-carbonitrile] reads above 1000 nM; that for `CCc1nc2ccc(N3CC(NS(C)(=O)=O)C3)nn2c1N(C)c1nc(-c2ccc(F)cc2)c(C#N)s1` [Cpd 190, N-(1-(3-((5-cyano-4-(4-fluorophenyl)thiazol-2-yl)(methyl)amino)-2-ethylimidazo[1,2-b]pyridazin-6-yl)azetidin-3-yl)methane-sulfonamide], 0.01 to 100 nM; that for `CCc1nc2ccc(N3CCC[C@H]3C(=O)O)nn2c1N(C)c1nc(-c2ccc(F)cc2)cs1` [Compound 138, (S)-1-(2-ethyl-3-((4-(4-fluorophenyl)thiazol-2-yl)(methyl)amino)imidazo[1,2-b]pyridazin-6-yl)pyrrolidine-2-carboxylic acid], above 1000 nM.
The compound `CCc1nc2ccc(N3CCC(O)CC3)nn2c1N(C)c1nc(-c2ccc(F)cc2)cs1` [Cpd 90, 1-(2-ethyl-3-((4-(4-fluorophenyl)thiazol-2-yl)(methyl)amino)imidazo[1,2-b]pyridazin-6-yl)piperidin-4-ol] showed an IC50 above 1000 nM.
`CCc1nc2ccc(N3C[C@H]4C[C@H]3CN4C(C)=O)nn2c1N(C)c1nc(-c2ccc(F)cc2)cs1` [Cpd 75, 1-((1R,4S)-5-(2-ethyl-3-((4-(4-fluorophenyl)thiazol-2-yl)(methyl)amino)imidazo[1,2-b]pyridazin-6-yl)-2,5-diazabicyclo[2.2.1]heptan-2-yl)ethanone] came in with an IC50 above 1000 nM.
The result for `CCc1nc2ccc(N3CCC(O)(CNC(=O)OC)C3)nn2c1N(C)c1nc(-c2ccc(F)cc2)c(C#N)s1` (stereo not drawn) [Cpd 168, methyl (1-(3-((5-cyano-4-(4-fluorophenyl)thiazol-2-yl)(methyl)amino)-2-ethylimidazo[1,2-b]pyridazin-6-yl)-3-hydroxypyrrolidin-3-yl)] reads 0.01 to 100 nM.

The IC50 is the concentration at which inhibition is half-maximal. Higher therefore signals a need for much substance.
